Results reported in patent US20250179017A1 (GUANGDONG NEWOPP BIOPHARMACEUTICALS CO., LTD., priority 2022, published 2025).

Molecular target: T1, human EP2 (PTGER2) (Homo sapiens, UniProt P43116)
T1 construct: Cayman Chemical (Human EP2 Reporter Assay Kit)
Experiment: EP2 antagonist assay (HEK-293 CNG membrane potential cAMP assay / 293T SEAP reporter assay, PGE2-stimulated)
Assay type: cell-based
Conditions: EP2 antagonist activity; concentration for 50% inhibition of signal compared to DMSO
Excerpt: 1. The HEK-293 CNG (Cyclic Nucleotide Gated) cell line expressing a modified CNG channel that leads to cell membrane depolarization in response to elevated intracellular cAMP levels, which can be measured using a fluorescent membrane potential dye, was engineered to express human EP2 (PTGER2) or EP4 (EP4R). The resulting cell line ACTOne™ PTGER2 or ACTOne™ EP4R as well as the fluorescent membrane potential dye were purchased from eEnzyme (Gaithersburg, MD, US) and used in this assay. Briefly, cells were plated at 1.2×10^4 cells/well in 20 μL DMEM supplemented with 2% Fetal Bovine Serum (FBS, VWR International), 1x Penicillin/Streptomycin (GenClone), 0.2 μg/mL puromycin (InvivoGen) and 50 μg/mL G418 (InvivoGen) on a 384 well plate (Greiner). The next day, cells were dye-loaded with 20 μL/well of 1x Dye-loading solution (eENZYME) following the manufacturer's instruction. After 2 hours of incubation at room temperature (RT) in the dark, a pre-read was made to obtain the background signals using CLARIOstar plate reader (BMG LABTECH, Germany) with the following filter settings: excitation=530/20 nm, emission=590/20 nm. Next, a serial dilution of compound (plus a DMSO control) were added to the plate (5 μL/well) and the reaction was incubated at RT for 15 min before adding 5 μL of PGE2 to every well for a final concentration of 5 nM. All wells were duplicated. The plate was then further incubated at RT for 30 min prior to a final read with the same machine settings. Background-subtracted signals were used to calculate IC50 values.
2. Human EP2 and EP4 Reporter Assay Kits were purchased from Cayman Chemical (Ann Arbor, MI, USA). The assay was performed following the provided User Manual. Briefly, a reverse transfection was performed by seeding 6.0×10^4 of 293T cells (ATCC) to each well of the provided Strip Plate coated with a proprietary transfection complex containing DNA constructs for expressing human EP2 or EP4 and a cAMP response element regulated secreted alkaline phosphatase (SEAP) reporter, in 200 μL DMEM supplemented with 2% FBS and incubated for 20-24 hours at 37° C. with 5% CO2. After the incubation, the culture medium was carefully removed, and the cells were replenished with 150 μL pre-warmed serum-free medium. PGE2 and test compounds were prepared together at 4x the desired final concentration, and 50 μL was added to each assigned well with the final concentration of 13 nM and 2 nM PGE2 for EP2 and EP4 assay, respectively. After 6-8 hours of incubation, 10 μL media from each well was transferred to corresponding well of a new plate, which was then sealed and incubated at 65° C. for 30 min. The plate was then cooled down to RT and 50 μL SEAP substrate was added to each well. Luminescence signal was measured using a CLARIOstar plate reader.
The IC50 value was determined as the concentration for 50% inhibition of signal compared to DMSO (A: IC50 […]; B: IC50 between 100 nM and 1,000 nM; C: IC50≥1,000 nM).

T1 sequence (P43116 whole entry): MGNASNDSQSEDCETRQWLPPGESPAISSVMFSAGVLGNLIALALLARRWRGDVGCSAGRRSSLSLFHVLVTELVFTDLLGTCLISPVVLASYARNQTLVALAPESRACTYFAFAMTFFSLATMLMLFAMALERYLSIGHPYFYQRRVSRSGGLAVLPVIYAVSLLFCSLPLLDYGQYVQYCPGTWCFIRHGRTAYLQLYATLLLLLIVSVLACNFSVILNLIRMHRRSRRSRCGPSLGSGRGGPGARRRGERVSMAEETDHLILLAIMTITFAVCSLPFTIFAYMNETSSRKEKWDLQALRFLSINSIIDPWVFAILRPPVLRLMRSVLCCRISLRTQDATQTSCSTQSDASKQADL

IC50 | Structure (SMILES)
< 100 nM | C[C@H](NC(=O)c1cc(-c2cc(F)cc(F)c2)cc2ccn(Cc3ccc(C(F)(F)F)cc3)c12)c1ccc(C(=O)O)cc1 [Example 54, (S)-4-(1-(5-(3,5-difluorophenyl)-1-(4-(trifluoromethyl)benzyl)-1H-indole-7-carboxamido)ethyl) benzoic acid]
100 to 1000 nM | O=C(O)c1ccc(C2(NC(=O)c3cc(Oc4ccccc4)cc4ccn(Cc5ccc(C(F)(F)F)cc5)c34)CC2)cc1 [Example 49, 4-(1-(5-phenoxy-1-(4-(trifluoromethyl)benzyl)-1H-indole-7-carboxamido)cyclopropyl)benzoic acid]
≥ 1000 nM | O=C(O)c1ccc(CNC(=O)c2ccc(Nc3ccc(F)cc3)c3cnn(Cc4ccc5ccccc5c4)c23)cc1 [Example 182, 4-((4-((4-fluorophenyl)amino)-1-(naphthalen-2-ylmethyl)-1H-indazole-7-carboxamido)methyl)benzoic acid]
< 100 nM | C[C@H](NC(=O)c1cc(-c2cccc(C#N)c2)cc2ccn(Cc3cccc(Cl)c3)c12)c1ccc(C(=O)O)cc1 [Example 108, (S)-4-(1-(1-(3-chlorobenzyl)-5-(3-cyanophenyl)-1H-indole-7-carboxamido)ethyl)benzoic acid]
< 100 nM | C[C@H](NC(=O)c1cc(-c2ccccc2)cc2nnn(Cc3ccc(C(F)(F)F)cc3)c12)c1ccc(C(=O)O)cc1 [Example 179, (S)-4-(1-(5-phenyl-1-(4-(trifluoromethyl)benzyl)-1H-benzo[d][1,2,3]triazole-7-carboxamido)ethyl)benzoic acid]
100 to 1000 nM | O=C(O)c1ccc(C2(NC(=O)c3ccc(-c4cc(F)cc(F)c4)c4ccn(Cc5ccc(C(F)(F)F)cc5)c34)CC2)cc1 [Example 39, 4-(1-(4-(3,5-difluorophenyl)-1-(4-(trifluoromethyl)benzyl)-1H-indole-7-carboxamido)cyclopropyl)benzoic acid]
≥ 1000 nM | C[C@@H](NC(=O)c1cc(-c2ccccc2)cc2ccn(Cc3ccc(C(F)(F)F)cc3)c12)c1ccc(C(=O)O)cc1 [Example 4, (R)-4-(1-(5-phenyl-1-(4-(trifluoromethyl)benzyl)-1H-indole-7-carboxamido)ethyl)benzoic acid]
< 100 nM | C[C@H](NC(=O)c1cc(-c2ccccc2)cc2cnn(Cc3ccc(-c4ccccc4)cc3)c12)c1ccc(C(=O)O)cc1 [Example 198, (S)-4-(1-(1-([1,1′-biphenyl]-4-ylmethyl)-5-phenyl-1H-indazole-7-carboxamido)ethyl)benzoic acid]
≥ 1000 nM | O=C(O)c1ccc(CNC(=O)c2ccc(-c3ccc(F)c(F)c3)c3ccn(Cc4ccc(C(F)(F)F)cc4)c23)cc1 [Example 23, 4-((4-(3,4-difluorophenyl)-1-(4-(trifluoromethyl)benzyl)-1H-indole-7-carboxamido)methyl) benzoic acid]
< 100 nM | C[C@H](NC(=O)c1cc(-c2cccnc2)cc2ccn(Cc3cccc(Cl)c3)c12)c1ccc(C(=O)O)cc1 [Example 109, (S)-4-(1-(1-(3-chlorobenzyl)-5-(pyridin-3-yl)-1H-indole-7-carboxamido)ethyl)benzoic acid]
< 100 nM | O=C(NC1CC2(C1)CC(C(=O)O)C2)c1cc(-c2ccccc2)cc2[nH]cc(Sc3ccc(C(F)(F)F)cc3)c12 (racemic) [Example 113, (±) 6-(6-phenyl-3-((4-(trifluoromethyl)phenyl)thio)-1H-indole-4-carboxamido)spiro[3.3]heptane-2-carboxylic acid]
< 100 nM | O=C(O)c1ccc(CNC(=O)c2cc(-c3ccccc3)cc3ncn(Cc4ccc(C(F)(F)F)cc4)c23)cc1 [Example 171, 4-((5-phenyl-1-(4-(trifluoromethyl)benzyl)-1H-benzo[d]imidazole-7-carboxamido)-methyl)benzoic acid]
< 100 nM | O=C(O)c1ccc(CNC(=O)c2cc(-c3ccc(F)cc3)cc3cnn(Cc4cccc(C(F)(F)F)c4)c23)cc1 [Example 138, 4-((5-(4-fluorophenyl)-1-(3-(trifluoromethyl)benzyl)-1H-indazole-7-carboxamido)methyl)benzoic acid]
< 100 nM | C[C@H](NC(=O)c1cc(-c2ccccc2)cc2ccn(Cc3ccc4ccccc4n3)c12)c1ccc(C(=O)O)cc1 [Example 143, (S)-4-(1-(5-phenyl-1-(quinolin-2-ylmethyl)-1H-indole-7-carboxamido)ethyl)benzoic acid]
< 100 nM | O=C(O)c1ccc(C2(NC(=O)c3ccc(Nc4ccc(F)cc4)c4ccn(Cc5ccc(C(F)(F)F)cc5)c34)CC2)cc1 [Example 64, 4-(1-(4-((4-fluorophenyl)amino)-1-(4-(trifluoromethyl)benzyl)-1H-indole-7-carboxamido)cyclopropyl)benzoic acid]
100 to 1000 nM | O=C(NC1CC2(C1)CC(C(=O)O)C2)c1cc(Br)cc2[nH]cc(Sc3ccc(C(F)(F)F)cc3)c12 (racemic) [Example 112, (+) 6-(6-bromo-3-((4-(trifluoromethyl)phenyl)thio)-1H-indole-4-carboxamido)spiro[3.3]heptane-2-carboxylic acid]
< 100 nM | CS(=O)(=O)c1cccc(-c2cc(C(=O)NCc3ccc(C(=O)O)cc3)c3c(ccn3Cc3ccc(C(F)(F)F)cc3)c2)c1 [Example 84, 4-((5-(3-(methylsulfonyl)phenyl)-1-(4-(trifluoromethyl)benzyl)-1H-indole-7-carboxamido)methyl)benzoic acid]
< 100 nM | C[C@H](NC(=O)c1cc(-c2cc(F)cc(F)c2)cc2ccn(Cc3cccc(Cl)c3)c12)c1ccc(C(=O)O)cc1 [Example 111, (S)-4-(1-(1-(3-chlorobenzyl)-5-(3,5-difluorophenyl)-1H-indole-7-carboxamido)ethyl)benzoic acid]
< 100 nM | C[C@H](NC(=O)c1cc(-c2cc(F)cc(F)c2)cc2cnn(Cc3ccc(-c4ccccc4)cc3)c12)c1ccc(C(=O)O)cc1 [Example 200, (S)-4-(1-(1-([1,1′-biphenyl]-4-ylmethyl)-5-(3,5-difluorophenyl)-1H-indazole-7-carboxamido)ethyl)benzoic acid]
< 100 nM | O=C(O)c1ccc(CNC(=O)c2cc(-c3cc(F)cc(F)c3)cc3cnn(Cc4cccc(C(F)(F)F)c4)c23)cc1 [Example 139, 4-((5-(3,5-difluorophenyl)-1-(3-(trifluoromethyl)benzyl)-1H-indazole-7-carboxamido)methyl)benzoic acid]
100 to 1000 nM | O=C(O)c1ccc(C2(NC(=O)c3cc(-c4ccc(F)c(F)c4)cc4ccn(Cc5ccc(C(F)(F)F)cc5)c34)CC2)cc1 [Example 18, 4-(1-(5-(3,4-difluorophenyl)-1-(4-(trifluoromethyl)benzyl)-1H-indole-7-carboxamido)cyclopropyl)benzoic acid]
< 100 nM | C[C@H](NC(=O)c1cc(-c2ccc(F)c(F)c2)cc2ccn(Cc3ccc(C(F)(F)F)cc3)c12)c1ccc(C(=O)O)cc1 [Example 53]
< 100 nM | O=C(O)c1ccc(CNC(=O)c2cc(-c3ccccc3Cl)cc3ccn(Cc4ccc(C(F)(F)F)cc4)c23)cc1 [Example 90, 4-((5-(2-chlorophenyl)-1-(4-(trifluoromethyl)benzyl)-1H-indole-7-carboxamido)methyl)benzoic acid]
< 100 nM | COc1cccc(Cn2ccc3c(Nc4ccccc4)ccc(C(=O)N[C@@H](C)c4ccc(C(=O)O)cc4)c32)c1 [Example 158, (S)-4-(1-(1-(3-methoxybenzyl)-4-(phenylamino)-1H-indole-7-carboxamido)ethyl)benzoic acid]
< 100 nM | C[C@H](NC(=O)c1cc(-c2ccc(F)c(F)c2)cc2cnn(Cc3ccc4ccccc4c3)c12)c1ccc(C(=O)O)cc1 [Example 219, (S)-4-(1-(5-(3,4-difluorophenyl)-1-(naphthalen-2-ylmethyl)-1H-indazole-7-carboxamido)ethyl)benzoic acid]
< 100 nM | O=C(O)c1ccc(CNC(=O)c2cc(-c3cc(F)cc(F)c3)cc3ccn(Cc4cccc(C(F)(F)F)c4)c23)cc1 [Example 125, 4-((5-(3,5-difluorophenyl)-1-(3-(trifluoromethyl)benzyl)-1H-indole-7-carboxamido)methyl)benzoic acid]
